In patent publication US7297700B2, “Bicycloheteroaryl compounds as P2X7 modulators and uses thereof” (Renovis, Inc., priority 2005, dated 2007):

Test system: IL-1β release from THP-1 cells
Assay: IL-1β Release Assay (Alternate Method), THP-1 cells
Type: cell-based, human
Conditions: Homo sapiens; at 0.3 μM; THP-1 cells; read-out: IL-1β % inhibition
How it was run: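 THP-1 cells differentiated 16 h with 100 ng/mL LPS plus 100 ng/mL IFN-γ, reprimed 2 h with 100 ng/mL LPS, pretreated 30 min with compound, then challenged 45 min with 250 uM BzATP (final). Supernatant IL-1β quantified by ELISA; percent inhibition from background-adjusted levels versus untreated cells.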

| SMILES | inhibition at 0.3 µM [%] |
| --- | --- |
| CC(C)(C(=O)Nc1ncnc2c1CCN(C(=O)c1c(F)cccc1F)C2)C12CC3CC(CC(C3)C1)C2 [Compound 361] | 0 to 25 |
| Cc1ncc2c(c1C(=O)NCC13CC4CC(CC(C4)C1)C3)CCN(Cc1ccccc1)C2 [Compound 368, 7-Benzyl-3-methyl-5,6,7,8-tetrahydro-[2,7]naphthyridine-4carboxylic acid (adamantan-1-ylmethyl)-amide] | 0 to 25 |
| O=C(c1ccccc1)N1CCc2c(ncnc2NC(=O)C23CC4CC(CC(C4)C2)C3)C1 [Compound 394] | 25 to 50 |

Same assay, conditions: at 0.3 μM; THP-1 cells

| SMILES | IL-1β % inhibition |
| --- | --- |
| CC(C)(C(=O)Nc1ncnc2c1CCN(C(=O)c1ccc(Cl)c(Cl)c1)C2)C12CC3CC(CC(C3)C1)C2 [Compound 360] | + (compound exhibited 0-25% inhibition at 0.3 μM) |
| CC(C)(C(=O)Nc1ncnc2c1CCN(C(=O)c1c(F)cccc1Cl)C2)C12CC3CC(CC(C3)C1)C2 [Compound 362] | + (compound exhibited 0-25% inhibition at 0.3 μM) |
| CC(C)(C(=O)Nc1ncnc2c1CCN(C(=O)c1cc(F)ccc1F)C2)C12CC3CC(CC(C3)C1)C2 [Compound 363] | + (compound exhibited 0-25% inhibition at 0.3 μM) |
| CC(C)(C(=O)Nc1ncnc2c1CCN(C(=O)c1cccc(Cl)c1Cl)C2)C12CC3CC(CC(C3)C1)C2 [Compound 364] | + (compound exhibited 0-25% inhibition at 0.3 μM) |
| CC(C)(C(=O)Nc1ncnc2c1CCN(C(=O)CC1CCCC1)C2)C12CC3CC(CC(C3)C1)C2 [Compound 365] | + (compound exhibited 0-25% inhibition at 0.3 μM) |
| CC(C)(C(=O)Nc1ncnc2c1CCN(C(=O)C1CCCCC1)C2)C12CC3CC(CC(C3)C1)C2 [Compound 366] | + (compound exhibited 0-25% inhibition at 0.3 μM) |
| CC(C)(C)CC(=O)N1CCc2c(ncnc2NC(=O)C(C)(C)C23CC4CC(CC(C4)C2)C3)C1 [Compound 367] | + (compound exhibited 0-25% inhibition at 0.3 μM) |
| CC(C)(C(=O)Nc1ncnc2c1CCN(Cc1ccccc1F)C2)C12CC3CC(CC(C3)C1)C2 [Compound 369] | + (compound exhibited 0-25% inhibition at 0.3 μM) |
| CC12CC3CC(C)(C1)CC(CC(=O)Nc1ncnc4c1CCN(Cc1ccccc1Cl)C4)(C3)C2 [Compound 370] | ++ (compound exhibited 25-50% inhibition at 0.3 μM) |
| CC12CC3CC(C)(C1)CC(CC(=O)Nc1ncnc4c1CCN(Cc1ccccc1F)C4)(C3)C2 [Compound 371] | +++ (compound exhibited 50-75% inhibition at 0.3 μM) |
| Cc1ccccc1CN1CCc2c(ncnc2NC(=O)CC23CC4CC(C)(CC(C)(C4)C2)C3)C1 [Compound 372] | +++ (compound exhibited 50-75% inhibition at 0.3 μM) |
| CC12CC3CC(C)(C1)CC(CC(=O)Nc1ncnc4c1CCN(Cc1ccc5c(c1)OCCO5)C4)(C3)C2 [Compound 373] | ++++ (compound exhibited 75% or greater inhibition at 0.3 μM) |
| CC12CC3CC(C)(C1)CC(CC(=O)Nc1ncnc4c1CCN(Cc1ccc(F)cc1F)C4)(C3)C2 [Compound 374] | ++ (compound exhibited 25-50% inhibition at 0.3 μM) |
| CC12CC3CC(C)(C1)CC(CC(=O)Nc1ncnc4c1CCN(Cc1ccc(F)cc1)C4)(C3)C2 [Compound 376] | ++ (compound exhibited 25-50% inhibition at 0.3 μM) |
| CC12CC3CC(C)(C1)CC(CC(=O)Nc1ncnc4c1CCN(S(=O)(=O)Cc1ccccc1)C4)(C3)C2 [Compound 377] | ++++ (compound exhibited 75% or greater inhibition at 0.3 μM) |
| CC12CC3CC(C)(C1)CC(CC(=O)Nc1ncnc4c1CCN(S(=O)(=O)Cc1ccc(Cl)c(Cl)c1)C4)(C3)C2 [Compound 378] | +++ (compound exhibited 50-75% inhibition at 0.3 μM) |
| CC12CC3CC(C)(C1)CC(CC(=O)Nc1ncnc4c1CCN(S(=O)(=O)Cc1ccc(Cl)cc1)C4)(C3)C2 [Compound 379] | +++ (compound exhibited 50-75% inhibition at 0.3 μM) |
| CC12CC3CC(C)(C1)CC(CC(=O)Nc1ncnc4c1CCN(S(=O)(=O)c1cccc(Cl)c1)C4)(C3)C2 [Compound 380] | + (compound exhibited 0-25% inhibition at 0.3 μM) |

| SMILES | IL-1β % inhibition |
| --- | --- |
| CC12CC3CC(C)(C1)CC(CC(=O)Nc1ncnc4c1CCN(S(=O)(=O)c1cccc(F)c1F)C4)(C3)C2 [Compound 381] | + (compound exhibited 0-25% inhibition at 0.3 μM) |
| Cc1cccc(C(=O)N2CCc3c(ncnc3NC(=O)CC34CC5CC(C)(CC(C)(C5)C3)C4)C2)c1 [Compound 382] | ++ (compound exhibited 25-50% inhibition at 0.3 μM) |
| CC12CC3CC(C)(C1)CC(CC(=O)Nc1ncnc4c1CCN(C(=O)c1cccc(C(F)(F)F)c1)C4)(C3)C2 [Compound 383] | + (compound exhibited 0-25% inhibition at 0.3 μM) |
| CC12CC3CC(C)(C1)CC(CC(=O)Nc1ncnc4c1CCN(C(=O)CC1CCCC1)C4)(C3)C2 [Compound 384] | ++ (compound exhibited 25-50% inhibition at 0.3 μM) |
| CC12CC3CC(C)(C1)CC(CC(=O)Nc1ncnc4c1CCN(C(=O)c1ccc(Cl)c(Cl)c1)C4)(C3)C2 [Compound 385] | + (compound exhibited 0-25% inhibition at 0.3 μM) |
| CC12CC3CC(C)(C1)CC(CC(=O)Nc1ncnc4c1CCN(C(=O)C1CCCCC1)C4)(C3)C2 [Compound 386] | ++ (compound exhibited 25-50% inhibition at 0.3 μM) |
| CC12CC3CC(C)(C1)CC(CC(=O)Nc1ncnc4c1CCN(C(=O)c1c(F)cccc1F)C4)(C3)C2 [Compound 387] | + (compound exhibited 0-25% inhibition at 0.3 μM) |
| CC(C)(C)CC(=O)N1CCc2c(ncnc2NC(=O)CC23CC4CC(C)(CC(C)(C4)C2)C3)C1 [Compound 388] | + (compound exhibited 0-25% inhibition at 0.3 μM) |
| CC12CC3CC(C)(C1)CC(CC(=O)Nc1ncnc4c1CCN(C(=O)c1c(F)cccc1Cl)C4)(C3)C2 [Compound 389] | ++ (compound exhibited 25-50% inhibition at 0.3 μM) |
| CC12CC3CC(C)(C1)CC(CC(=O)Nc1ncnc4c1CCN(C(=O)c1cc(F)ccc1F)C4)(C3)C2 [Compound 390] | + (compound exhibited 0-25% inhibition at 0.3 μM) |
| CC12CC3CC(C)(C1)CC(CC(=O)Nc1ncnc4c1CCN(C(=O)c1cccc(Cl)c1Cl)C4)(C3)C2 [Compound 391] | + (compound exhibited 0-25% inhibition at 0.3 μM) |
| O=C(Cc1ccccc1)N1CCc2c(ncnc2NC(=O)C23CC4CC(CC(C4)C2)C3)C1 [Compound 398] | +++ (compound exhibited 50-75% inhibition at 0.3 μM) |
| O=C(c1ccc(Cl)cc1)N1CCc2c(ncnc2NC(=O)C23CC4CC(CC(C4)C2)C3)C1 [Compound 399] | + (compound exhibited 0-25% inhibition at 0.3 μM) |
| O=C(c1cccc(F)c1)N1CCc2c(ncnc2NC(=O)C23CC4CC(CC(C4)C2)C3)C1 [Compound 400] | + (compound exhibited 0-25% inhibition at 0.3 μM) |
| O=C(c1ccc(OC(F)(F)F)cc1)N1CCc2c(ncnc2NC(=O)C23CC4CC(CC(C4)C2)C3)C1 [Compound 401] | + (compound exhibited 0-25% inhibition at 0.3 μM) |
| CCc1ccc(C(=O)N2CCc3c(ncnc3NC(=O)C34CC5CC(CC(C5)C3)C4)C2)cc1 [Compound 402] | + (compound exhibited 0-25% inhibition at 0.3 μM) |
| Cc1cccc(C(=O)N2CCc3c(ncnc3NC(=O)C34CC5CC(CC(C5)C3)C4)C2)c1 [Compound 403] | ++ (compound exhibited 25-50% inhibition at 0.3 μM) |
